Here are results for one molecule from US3983230A, “Antibiotic siomycin A derivatives and production thereof” (priority 1973, dated 1976).

The test system of series [1] is Staphylococcus aureus 80257. Description: Minimum inhibitory concentration, Staphylococcus aureus 80257. The class given is cell-based.
In series [2] the test system is Staphylococcus aureus FDA 219PJC-1. Description: Minimum inhibitory concentration, Staphylococcus aureus FDA 219PJC-1. The class given is cell-based.
A short description of series [3]: Solubility in 0.1% aqueous sodium hydrogencarbonate (distilled water for sodium salts), Table 1. The class given is physicochemical. Particulars: 0.1% aqueous solution of sodium hydrogencarbonate. An excerpt:
The solubility in various solvents of several specific products obtained by the process of the present invention are shown in Table 1 in comparison with the solubility of siomycin A.

Series [4] relates to Bacillus subtilis PCI 219. The experiment in a line: Minimum inhibitory concentration, Bacillus subtilis PCI 219. Format: cell-based.
Series [5] in a line: Qualitative solubility in various solvents (text, Examples).
In another series the test system is gram-positive bacteria. Description: Antibacterial activity against gram-positive bacteria. Format: cell-based. The source says: The half esters of siomycin A and salts thereof show activities against a variety of microorganisms.
Series [6] relates to Streptococcus pyogenes C-203. The experiment in a line: Therapeutic effect in mice infected with Streptococcus pyogenes C-203. Conditions: i.p. infection with Streptococcus pyogenes C-203, subcutaneous at 0, 4 and 8 hours, survival 7 days. The class given is in vivo. The protocol:
(§1) The therapeutic effect of sodium salts of the half ester of siomycin A with dicarboxylic acid in mice against experimental infections are shown in Table 3.
(§2) A group of 10 mice weighing 19-21 g were infected with a standardized inoculum of Diplococcus pneumoniae type or Streptococcus pyogenes C-203 by intraperitoneal injection.
(§3) The sodium salts of half esters of siomycin A with the dicarboxylic acid were administered subcutaneously to the mice at 0, 4 and 8 hours after infection and survival of infected mice was examined for 7 days after infection.

The conditions of series [7]: background, cited from earlier work.
The subject of series [8] is Streptococcus pyogenes C-203. The experiment in a line: Minimum inhibitory concentration, Streptococcus pyogenes C-203. Format: cell-based.
The test system of series [9] is Diplococcus pneumoniae type I. The experiment in a line: Minimum inhibitory concentration, Diplococcus pneumoniae type I. The class given is cell-based.
The subject of series [10] is Diplococcus pneumoniae type I. The experiment in a line: Therapeutic effect in mice infected with Diplococcus pneumoniae type I. Format: in vivo. Particulars: i.p. infection with Diplococcus pneumoniae type I, subcutaneous at 0, 4 and 8 hours, survival 7 days. The protocol: as §1, §2, §3
A further series deals with Bacillus anthracis. The class given is cell-based.

Molecules are shown by their SMILES. Values after ≈ are worked out from the molar mass of the structure shown. Where two headings read alike, the source gives them in different places.

Regarding `C=C(NC(=O)C(=C)NC(=O)c1csc(C2=N[C@@H]3c4csc(n4)[C@H]4NC(=O)c5csc(n5)[C@H]([C@](C)(O)[C@@H](C)O)NC(=O)[C@H]5CSC(=N5)/C(=C/C)NC(=O)[C@H]([C@@H](C)O)NC(=O)c5csc(n5)[C@]3(CC2)NC(=O)[C@H](C)NC(=O)C(=C)NC(=O)C(=C)NC(=O)[C@H](C(C)C)N[C@@H]2C=Cc3c([C@H](C)O)cc(nc3[C@H]2O)C(=O)O[C@@H]4C)n1)C(N)=O` [Siomycin A, siomycin A], the Minimum inhibitory concentration in series [1] turned out to be 0.39 µg/mL (≈ 0.237 µM); in series [2] it was 0.39 µg/mL (≈ 0.237 µM); in series [4], 0.39 µg/mL (≈ 0.237 µM); in series [8], 0.1 µg/mL (≈ 0.0606 µM); in series [9] it was 0.1 µg/mL (≈ 0.0606 µM); in the series on Bacillus anthracis it was 0.78 µg/mL (≈ 0.473 µM). For the same molecule, the Solubility in [3] is listed as 0.00015%; in [5] (dilute alkaline solution), “almost insoluble”; in series [5] (water), “almost insoluble”; in series [7] (butanol), “slightly soluble”; in [7] (chloroform) it was “slightly soluble”; in [7] (dioxane) it was “soluble”. In addition, the results for the Solubility result in series [7] (ethanol), in [7] (methanol) and in series [7] (water) were “slightly soluble”, “slightly soluble” and “almost insoluble”, respectively. Further, the “minimum inhibitory concentration against gram-positive bacteria” value with gram-positive bacteria was 0.1 to 0.78 µg/mL. In addition, the median effective dose (ED50) in [6] stood at 75.2 mg/kg; in [10] it was 23.2 mg/kg.
